Assay [1] in a line: Combination study, ATPLite 72 h, dose matrix (Synergy Score, CI50). To be noted: combination with Compound 1; OPM-2. (Cellular ATP, detected with luciferase, serves as a proxy for viable cell number.)
For the next assay, the system named is OMP-2. The assay is described as above. The following applies: combination with Compound 1; OPM-2.
For another assay, the system named is RPMI-8226. The assay is described as above. The following applies: combination with Compound 1.

This note sets out measurements from patent US20240325398A1, “COMBINATION THERAPIES” (Infinity Pharmaceuticals, Inc., priority 2014, published 2024).

Method for RPMI-8226: Cells are thawed from a liquid nitrogen preserved state. Once cells have been expanded and divide at their expected doubling times, screening begins. Cells are seeded in growth media in either black 1536-well or 384-well tissue culture treated plates. Cells are then equilibrated in assay plates via centrifugation and placed in incubators attached to the Dosing Modules at 37° C. for 24 hours before treatment. […] These Tzero (To) plates are read using ultra-sensitive luminescence on Envision plate readers (Perkin Elmer). Treated assay plates are incubated with compound for 72 hours. After 72 hours, plates are developed for endpoint analysis using ATPLite. All data points are collected via automated processes, quality controlled and analyzed using Zalicus software.
where T is treated cell count and V is untreated (vehicle) cell count (at 72 hours). I ranges from 0% (when T=V) to 100% (when T=0). […] The measure of effect in the experiment can be the inhibition of cellular response relative to the untreated level (vehicle alone). […] The inhibition ranges from 0% at the untreated level to 100% when T=0. Inhibition levels are negative for agents that actually increase levels. Other effect measures, such as an activity ratio r=T/V may be more appropriate for some assays. When activity ratios (e.g, fold increase over stimulated control) are being used, the effect can be measured using an induction 1=ln(T/V). With this definition, all effect expressions are the same as for inhibition.
Growth Inhibition (GI) is used as a measure of cell viability. […] A GI reading of 100% represents complete growth inhibition—T72 compound-treated and T0 vehicle signals are matched. […] A GI reading of 200% represents complete death of all cells in the culture well. Compounds reaching an activity plateau of GI 200% are considered cytotoxic. GI is calculated by applying the following test and equation:
Combination analysis data were collected in a 6×6 dose matrix. Synergy is calculated by comparing a combination's response to those of its single compound, against the drug-with-itself dose-additive reference model. Deviations from dose additivity may be assessed visually on an isobologram or numerically with a Combination Index (CI). […] Additive effect is CI=1.0. […] Antagonistic effect is CI>1.0.
To measure combination effects in excess of Loewe additivity, a scalar measure to characterize the strength of synergistic interaction termed the Synergy Score is devised. The Synergy Score is calculated as:
The fractional inhibition for each component agent and combination point in the matrix is calculated relative to the median of all vehicle-treated control wells. The Synergy Score equation integrates the experimentally-observed activity volume at each point in the matrix in excess of a model surface numerically derived from the activity of the component agents using the Loewe model for additivity. Additional terms in the Synergy Score equation (above) are used to normalize for various dilution factors used for individual agents and to allow for comparison of synergy scores across an entire experiment. The inclusion of positive inhibition gating or an Idata multiplier removes noise near the zero effect level, and biases results for synergistic interactions at that occur at high activity levels.
Loewe Volume (Loewe Vol) is used to assess the overall magnitude of the combination interaction in excess of the Loewe additivity model. Loewe Volume is particularly useful when distinguishing synergistic increases in a phenotypic activity (positive Loewe Volume) versus synergistic antagonisms (negative Loewe Volume). […] This model defines additivity as a non-synergistic combination interaction where the combination dose matrix surface should be indistinguishable from either drug crossed with itself.

As to `C[C@@H]1C[C@H]2[C@@H]3CCC4=CC(=O)C=C[C@]4(C)[C@@]3(F)[C@@H](O)C[C@]2(C)[C@@]1(O)C(=O)CO` [dexamethasone, (8S,9R,10S,11S,13S,14S,16R,17R)-9-Fluoro-11,17-dihydroxy-17-(2-hydroxyacetyl)-10,13,16-trimethyl-6,7,8,9,10,11,12,13,14,15,16,17-dodecahydro-3H-cyclopenta[a]phenanthren-3-one], in assay [1], the CI50 growth inhibition entry was “S (S=0.01 to <0.5)”. In the assay on OMP-2, the CI50 inhibition entry was “U (U=0.7 to <1)”, the “Synergy Score growth inhibition” value was “A2 (A2=1 to <3)” and the “Synergy Score inhibition” value is “A1 (A1=0.0001 to <1)”. Also, in the assay on RPMI-8226, the CI50 growth inhibition result is recorded as “S (S=0.01 to <0.5)”, the CI50 inhibition entry is listed as “U (U=0.7 to <1)”, the “Synergy Score growth inhibition” value is reported as “A3 (A3=>3)” and the “Synergy Score inhibition” value is recorded as “A2 (A2=1 to <3)”.
